Results reported in ChEMBL document CHEMBL1629549, “Effects of minocycline and valproic acid coadministration on atazanavir plasma concentrations in human immunodeficiency virus-infected adults receiving atazanavir-ritonavir” (Antimicrob Agents Chemother, 2008).

Key:
Format in all cases: ADME, organism-based
[1] = Half life in HIV-infected patient at 100 mg, qd co-administered with 100 mg minocycline, bid for 15 days; conditions: human, in vivo
[2] = Half life in HIV-infected patient at 100 mg, qd; conditions: human, in vivo
[3] = AUC (0 to 24 hrs) in HIV-infected patient at 100 mg, qd; set-up: dose 100 mg, time < 24 hr; conditions: human, plasma
[4] = Cmax in HIV-infected patient at 100 mg, qd co-administered with 100 mg minocycline and 250 mg valporic acid, bid for 15 days; set-up: dose 100 mg; conditions: human, in vivo
[5] = Half life in HIV-infected patient at 100 mg, qd co-administered with 100 mg minocycline and 250 mg valporic acid, bid for 15 days; conditions: human, in vivo
[6] = Cmax in HIV-infected patient at 100 mg, qd co-administered with 100 mg minocycline, bid for 15 days; set-up: dose 100 mg; conditions: human, in vivo
[7] = Cmax in HIV-infected patient at 100 mg, qd; set-up: dose 100 mg; conditions: human, in vivo
[8] = AUC (0 to 24 hrs) in HIV-infected patient at 100 mg, qd co-administered with 100 mg minocycline, bid for 15 days; set-up: time < 24 hr, dose 100 mg; conditions: human, plasma
[9] = AUC (0 to 24 hrs) in HIV-infected patient at 100 mg, qd co-administered with 100 mg minocycline and 250 mg valporic acid, bid for 15 days; set-up: dose 100 mg, time < 24 hr; conditions: human, plasma
[10] = AUC (0 to 24 hrs) in HIV-infected patient at 300 mg, qd; set-up: time < 24 hr, dose 300 mg; conditions: human, plasma
[11] = Half life in HIV-infected patient at 300 mg, qd co-administered with 100 mg minocycline and 250 mg valporic acid, bid for 15 days; conditions: human, in vivo
[12] = Half life in HIV-infected patient at 300 mg, qd; conditions: human, in vivo
[13] = Cmax in HIV-infected patient at 300 mg, qd co-administered with 100 mg minocycline, bid for 15 days; set-up: dose 300 mg; conditions: human, in vivo
[14] = Cmax in HIV-infected patient at 300 mg, qd; set-up: dose 300 mg; conditions: human, in vivo
[15] = AUC (0 to 24 hrs) in HIV-infected patient at 300 mg, qd co-administered with 100 mg minocycline, bid for 15 days; set-up: dose 300 mg, time < 24 hr; conditions: human, plasma
[16] = AUC (0 to 24 hrs) in HIV-infected patient at 300 mg, qd co-administered with 100 mg minocycline and 250 mg valporic acid, bid for 15 days; set-up: time < 24 hr, dose 300 mg; conditions: human, plasma
[17] = Half life in HIV-infected patient at 300 mg, qd co-administered with 100 mg minocycline, bid for 15 days; conditions: human, in vivo
[18] = Cmax in HIV-infected patient at 300 mg, qd co-administered with 100 mg minocycline and 250 mg valporic acid, bid for 15 days; set-up: dose 300 mg; conditions: human, in vivo

CC(C)c1nc(CN(C)C(=O)N[C@H](C(=O)N[C@@H](Cc2ccccc2)C[C@H](O)[C@H](Cc2ccccc2)NC(=O)OCc2cncs2)C(C)C)cs1 [RITONAVIR]
half-life [1]: 6.64 h
half-life [2]: 5.4 h
AUC at 24 h [3]: 9600 ng·h/mL
Cmax [4]: 884 ng/mL
half-life [5]: 4.4 h
Cmax [6]: 990 ng/mL
Cmax [7]: 957 ng/mL
AUC at 24 h [8]: 8190 ng·h/mL
AUC at 24 h [9]: 7270 ng·h/mL

COC(=O)N[C@H](C(=O)N[C@@H](Cc1ccccc1)[C@@H](O)CN(Cc1ccc(-c2ccccn2)cc1)NC(=O)[C@@H](NC(=O)OC)C(C)(C)C)C(C)(C)C [ATAZANAVIR]
AUC at 24 h [10]: 53500 ng·h/mL
half-life [11]: 10.4 h
half-life [12]: 11 h
Cmax [13]: 3400 ng/mL
Cmax [14]: 5130 ng/mL
AUC at 24 h [15]: 33100 ng·h/mL
AUC at 24 h [16]: 33500 ng·h/mL
half-life [17]: 7.93 h
Cmax [18]: 2600 ng/mL
